Source: PubChem BioAssay AID248 (DTP/NCI, 2004)
Values joined by “and” are separate entries in the source; they are usually repeats but may differ in a detail not shown here. Equal values may be shown once. Inconclusive results and toxic doses are left out.

System: L1210 leukemia ip in BDF1 mice, survival T/C
Experiment: NCI In Vivo Anticancer Drug Screen. Data for tumor model L1210 Leukemia (intraperitoneal) in B6D2F1 (BDF1) mice
Conditions: endpoint: mean survival time, higher = longer survival
Outline: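 Each compound was tested against a transplantable tumor grown in mice. The endpoint was survival, with treated animals benchmarked against vehicle controls as a simple ratio.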

[1] = dose: 100.0 mg/kg/injection, schedule: Q01DX001 (ip), vehicle: saline
[2] = dose: 200.0 mg/kg/injection, schedule: Q01DX001 (ip), vehicle: saline
[3] = dose: 400.0 mg/kg/injection, schedule: Q01DX001 (ip), vehicle: saline
[4] = dose: 100.0 mg/kg/injection, schedule: Q04DX003 (ip), vehicle: Klucel (hydroxypropylcellulose) (HPC)
[5] = dose: 200.0 mg/kg/injection, schedule: Q04DX003 (ip), vehicle: Klucel (hydroxypropylcellulose) (HPC)
[6] = dose: 400.0 mg/kg/injection, schedule: Q04DX003 (ip), vehicle: Klucel (hydroxypropylcellulose) (HPC)
[7] = dose: 100.0 mg/kg/injection, schedule: Q01DX009 (ip), vehicle: Klucel (hydroxypropylcellulose) (HPC)
[8] = dose: 200.0 mg/kg/injection, schedule: Q01DX009 (ip), vehicle: Klucel (hydroxypropylcellulose) (HPC)
[9] = dose: 40.0 mg/kg/injection, schedule: Q01DX001 (ip), vehicle: Klucel (hydroxypropylcellulose) (HPC)
[10] = dose: 50.0 mg/kg/injection, schedule: Q01DX001 (ip), vehicle: carboxymethylcellulose (CMC)
[11] = dose: 100.0 mg/kg/injection, schedule: Q01DX001 (ip), vehicle: carboxymethylcellulose (CMC)
[12] = dose: 200.0 mg/kg/injection, schedule: Q01DX001 (ip), vehicle: carboxymethylcellulose (CMC)
[13] = dose: 400.0 mg/kg/injection, schedule: Q01DX001 (ip), vehicle: carboxymethylcellulose (CMC)

O=C(NCCF)NC1CCCCCCCCCCC1
T/C (dose: 9.5 mg/kg/injection, schedule: Q01DX001 (ip), vehicle: other): 101 % of control
T/C (dose: 19.0 mg/kg/injection, schedule: Q01DX001 (ip), vehicle: other): 92 % of control
T/C (dose: 38.0 mg/kg/injection, schedule: Q01DX001 (ip), vehicle: other): 121 % of control

O=C1C(O)=C(O)C(=O)C(O)=C1O
T/C [1]: 103 % of control
T/C [2]: 100 % of control
T/C [3]: 105 % of control

O=C1CC(c2cccc(S(=O)(=O)F)c2)=NN1c1ccc([N+](=O)[O-])cn1
T/C [4]: 102 % of control
T/C [5]: 105 % of control
T/C [6]: 91 % of control

O=c1[nH]nc(-c2ccccc2)c2ccccc12
T/C (dose: 50.0 mg/kg/injection, schedule: Q01DX001 (ip), vehicle: saline): 100 % of control
T/C [1]: 97 % of control
T/C [2]: 93 % of control
T/C [3]: 100 % of control

CCN(CC)CCOC(=O)c1ccccc1S(N)(=O)=O
T/C [1]: 104 % of control
T/C [2]: 101 % of control
T/C [3]: 98 % of control

C/C(=N\NC(=O)CCCCC(=O)N/N=C(\C)c1ccc(C)cc1)c1ccc(C)cc1
T/C [7]: 88 % of control
T/C [8]: 90 % of control
T/C (dose: 400.0 mg/kg/injection, schedule: Q01DX009 (ip), vehicle: Klucel (hydroxypropylcellulose) (HPC)): 91 % of control

Cc1c(C)c(CO)c(C)c(C)c1CO
T/C (dose: 12.5 mg/kg/injection, schedule: Q04DX003 (ip), vehicle: Klucel (hydroxypropylcellulose) (HPC)): 94 % of control
T/C (dose: 25.0 mg/kg/injection, schedule: Q04DX003 (ip), vehicle: Klucel (hydroxypropylcellulose) (HPC)): 92 % of control
T/C (dose: 50.0 mg/kg/injection, schedule: Q04DX003 (ip), vehicle: Klucel (hydroxypropylcellulose) (HPC)): 97 % of control

CCC(=O)OC1(c2ccccc2)CCN(C)CC1C (configuration not stated)
T/C (dose: 5.0 mg/kg/injection, schedule: Q01DX001 (ip), vehicle: saline): 105 % of control
T/C (dose: 10.0 mg/kg/injection, schedule: Q01DX001 (ip), vehicle: saline): 105 % of control
T/C (dose: 20.0 mg/kg/injection, schedule: Q01DX001 (ip), vehicle: saline): 102 % of control
T/C (dose: 40.0 mg/kg/injection, schedule: Q01DX001 (ip), vehicle: saline): 103 % of control
T/C (dose: 80.0 mg/kg/injection, schedule: Q01DX001 (ip), vehicle: saline): 102 % of control

CC1(C)CCC(C)(C)C(=O)C1=O
T/C (dose: 10.0 mg/kg/injection, schedule: Q01DX009 (ip), vehicle: Klucel (hydroxypropylcellulose) (HPC)): 105 % of control
T/C (dose: 10.0 mg/kg/injection, schedule: Q04DX003 (ip), vehicle: Klucel (hydroxypropylcellulose) (HPC)): 97 % of control
T/C (dose: 20.0 mg/kg/injection, schedule: Q01DX001 (ip), vehicle: Klucel (hydroxypropylcellulose) (HPC)): 103 % of control
T/C (dose: 20.0 mg/kg/injection, schedule: Q01DX009 (ip), vehicle: Klucel (hydroxypropylcellulose) (HPC)): 89 % of control
T/C (dose: 20.0 mg/kg/injection, schedule: Q04DX003 (ip), vehicle: Klucel (hydroxypropylcellulose) (HPC)): 102 % of control
T/C [9]: 102 % of control
T/C (dose: 40.0 mg/kg/injection, schedule: Q01DX009 (ip), vehicle: Klucel (hydroxypropylcellulose) (HPC)): 89 % of control
T/C (dose: 40.0 mg/kg/injection, schedule: Q04DX003 (ip), vehicle: Klucel (hydroxypropylcellulose) (HPC)): 100 % of control

CC1(C)CC(OP(=O)(OC2CC(C)(C)N(O)C(C)(C)C2)c2ccccc2)CC(C)(C)N1O
T/C (dose: 100.0 mg/kg/injection, schedule: Q01DX001 (ip), vehicle: water): 91 % of control
T/C (dose: 200.0 mg/kg/injection, schedule: Q01DX001 (ip), vehicle: water): 106 % of control
T/C (dose: 400.0 mg/kg/injection, schedule: Q01DX001 (ip), vehicle: water): 89 % of control

CCC1CN2C(=N1)c1cc(Cl)ccc1-c1ccc(Cl)cc12 (configuration not stated)
T/C [7]: 95 % of control
T/C [4]: 101 % of control
T/C [8]: 98 % of control
T/C [5]: 103 % of control
T/C [6]: 116 % of control

Cn1cnc2cc(N=Cc3ccc(N(CCCl)CCCl)cc3)ccc21
T/C (dose: 100.0 mg/kg/injection, schedule: Q04DX002 (ip), vehicle: Klucel (hydroxypropylcellulose) (HPC)): 106 % of control
T/C (dose: 200.0 mg/kg/injection, schedule: Q04DX002 (ip), vehicle: Klucel (hydroxypropylcellulose) (HPC)): 106 % of control
T/C (dose: 400.0 mg/kg/injection, schedule: Q04DX002 (ip), vehicle: Klucel (hydroxypropylcellulose) (HPC)): 109 % of control

O=C1C(Cl)=C(NC2CCCC2)C(=O)c2ccccc21
T/C (dose: 12.5 mg/kg/injection, schedule: Q01DX001 (ip), vehicle: saline with Tween-80): 94 % of control
T/C (dose: 25.0 mg/kg/injection, schedule: Q01DX001 (ip), vehicle: saline with Tween-80): 94 % of control

Cc1noc(N)c1C#N
T/C (dose: 100.0 mg/kg/injection, schedule: Q04DX002 (ip), vehicle: saline with Tween-80): 100 % of control
T/C (dose: 200.0 mg/kg/injection, schedule: Q04DX002 (ip), vehicle: saline with Tween-80): 95 % of control
T/C (dose: 400.0 mg/kg/injection, schedule: Q04DX002 (ip), vehicle: saline with Tween-80): 89 % of control

Oc1ccc2ccccc2c1C(c1ccccc1)N1CCCCC1 (configuration not stated)
T/C (dose: 100.0 mg/kg/injection, schedule: Q01DX001 (ip), vehicle: Klucel (hydroxypropylcellulose) (HPC)): 94 % of control
T/C (dose: 200.0 mg/kg/injection, schedule: Q01DX001 (ip), vehicle: Klucel (hydroxypropylcellulose) (HPC)): 97 % of control
T/C (dose: 400.0 mg/kg/injection, schedule: Q01DX001 (ip), vehicle: Klucel (hydroxypropylcellulose) (HPC)): 103 % of control

O=[N+]([O-])c1ccc(C=Nc2ccccc2CO)s1
T/C [4]: 103 % of control
T/C [5]: 104 % of control
T/C [6]: 93 % of control

C1CCC(NCCNC2CCCCC2)CC1
T/C (dose: 75.0 mg/kg/injection, schedule: Q01DX001 (ip), vehicle: saline): 98 % of control

CC(=O)OCC1CCC(NC(=O)N(CCCl)N=O)CC1 (configuration not stated)
T/C (dose: 3.0 mg/kg/injection, schedule: Q01DX001 (ip), vehicle: Klucel (hydroxypropylcellulose) (HPC)): 104 % of control
T/C (dose: 5.0 mg/kg/injection, schedule: Q01DX001 (ip), vehicle: Klucel (hydroxypropylcellulose) (HPC)): 114 % of control
T/C (dose: 8.0 mg/kg/injection, schedule: Q01DX001 (ip), vehicle: Klucel (hydroxypropylcellulose) (HPC)): 167 % of control
T/C (dose: 12.0 mg/kg/injection, schedule: Q01DX001 (ip), vehicle: Klucel (hydroxypropylcellulose) (HPC)): 221 % of control
T/C (dose: 18.0 mg/kg/injection, schedule: Q01DX001 (ip), vehicle: Klucel (hydroxypropylcellulose) (HPC)): 270 % of control and 316 % of control
T/C (dose: 26.0 mg/kg/injection, schedule: Q01DX001 (ip), vehicle: Klucel (hydroxypropylcellulose) (HPC)): 316 % of control
T/C [9]: 208 % of control

c1ccc2c(c1)Nc1cc3ccccc3cc1O2
T/C [10]: 101 % of control
T/C [11]: 92 % of control
T/C [12]: 97 % of control
T/C [13]: 90 % of control

CCN(CC)CCCOC(=O)c1ccc(N)cc1
T/C (dose: 12.5 mg/kg/injection, schedule: Q01DX009 (ip), vehicle: saline): 103 % of control
T/C (dose: 25.0 mg/kg/injection, schedule: Q01DX009 (ip), vehicle: saline): 97 % of control
T/C (dose: 50.0 mg/kg/injection, schedule: Q01DX009 (ip), vehicle: saline): 98 % of control

N#CC1(c2ccccc2)CC(C(=O)c2ccccc2)C(O)(c2ccccc2)CC1c1ccccc1 (configuration not stated)
T/C (dose: 50.0 mg/kg/injection, schedule: Q01DX009 (ip), vehicle: saline with Tween-80): 101 % of control
T/C (dose: 100.0 mg/kg/injection, schedule: Q01DX009 (ip), vehicle: saline with Tween-80): 108 % of control
T/C (dose: 200.0 mg/kg/injection, schedule: Q01DX009 (ip), vehicle: saline with Tween-80): 101 % of control

CC1(C)N=C(N)N=C(N)N1c1ccc(OCCCNC(=O)Nc2ccc(S(=O)(=O)F)cc2)c(Cl)c1
T/C (dose: 18.75 mg/kg/injection, schedule: Q04DX003 (ip), vehicle: saline with Tween-80): 106 % of control
T/C (dose: 37.5 mg/kg/injection, schedule: Q04DX003 (ip), vehicle: saline with Tween-80): 104 % of control
T/C (dose: 50.0 mg/kg/injection, schedule: Q01DX004 (ip), vehicle: saline): 111 % of control
T/C (dose: 75.0 mg/kg/injection, schedule: Q04DX003 (ip), vehicle: saline with Tween-80): 103 % of control
T/C (dose: 100.0 mg/kg/injection, schedule: Q01DX004 (ip), vehicle: saline): 100 % of control

CC(=O)Nc1cc(F)c2c(c1)Cc1cc(F)ccc1-2
T/C [10]: 102 % of control
T/C [11]: 98 % of control
T/C [12]: 93 % of control
T/C [13]: 93 % of control

O=S1(=O)CC2(N3CCOCC3)CCCCC21 (configuration not stated)
T/C [10]: 98 % of control
T/C [11]: 104 % of control
T/C [12]: 98 % of control
